Measurements published in US11718635B2, “Iron bis(imino) aryl catalysts and methods thereof” (ExxonMobil Chemical Patents Inc., priority 2019, dated 2023).

Assay: Solubility tests in anhydrous hexane (stirred 30 minutes at room temperature, filtered, solvent removed)
Format: physicochemical
Procedure: (§1) This solution was stirred for 30 minutes at room temperature. The contents were then filtered through a buchner filter funnel with a frit having a 4-5.5 micron size. The solvent was then removed en vacuo.
as §1

Row | calculated solubility (anhydrous hexane, stirred 30 minutes at room temperature, filtered through 4-5.5 micron frit) | solubility in hydrophobic (nonpolar) solvents compared to the Comparative Catalyst | Compound
1 | 0.0 g/g hexane | – | CC(=Nc1c(C)cc(C)cc1Cl)c1cccc(C(C)=Nc2c(C)cc(C)cc2Cl)n1.[Cl][Fe][Cl] [2,6-bis-[1-(2-chloro-4,6-dimethylphenylimino)ethyl]pyridine iron dichloride]
2 | – | significantly improved solubility | (E)-N-(2-chloro-4,6-dimethylphenyl)-1-(6-((E)-1-(mesitylimino)ethyl)pyridin-2-yl)ethan-1-imine iron-silylneopentyl [Catalyst 1]
